We go through four substances from patent US7851606B2, “Negatively charged minor groove binders” (Elitech Holding B.V., priority 2002, dated 2010).

The test system of series [1] is complementary targets that contain A/C mismatch at positions 5, 6, 7 and 8. Briefly: Mismatch discrimination of oligonucleotide conjugates 5′-CCAAAATTAC-X^11-3′ hybridized to complementary targets (Example 4). In kind it is binding. Particulars: for ΔΔG° between match and mismatch: calculated at 50° C. How it is done:
This example illustrates conjugates of the present invention to perform mismatch discrimination.
Oligonucleotide conjugates 5′-CCAAAATTAC-X^11-3′ (SEQ ID NO:1), where X ^11 is a minor groove binder of FIG. 1, were hybridized to different complementary targets that contain A/C mismatch at positions 5, 6, 7 and 8, relative to the attached minor groove binder.
The relative free energy difference (ΔΔG°) between match and mismatch at positions 5, 6, 7 and 8 were calculated at 50° C. and are listed in Table below. The ΔΔG° values were calculated as described in U.S. application Ser. No. 09/796,988.
Table of ΔΔG° between match and mismatch calculated at 50° C. for different conjugates.

In series [2] the test system is matched complement of ODN # 1. Briefly: Thermodynamic properties / mismatch discrimination of 3′-conjugated GGTTTTAATG-X″ sequences (Example 5, FIG. 2). In kind it is binding. Conditions: C/A mismatch at positions 5, 6, 7 and 8; 50° C.; PCR buffer; oligonucleotide 5×10^−7M; in words. How it is done:
Thermodynamic properties of 3′ -conjugated, where X″ represents the attached minor groove binder which is either CDPI3 (C), CDPI3 (N) and CDPI4-(SO3^−)2. The parameters were determined at PCR buffer, where the oligonucleotide concentration was 5×10^−7M. The sequences below were hybridized to matched complement of ODN # 1. The relative free energy difference (ΔΔG°) between match and mismatch at positions 5, 6, 7 and 8 were calculated at 50° C. and plotted in FIG. 2. The bold C base in the sequences indicates the position of the C/A mismatch.

{CDPI3-SO3} = negatively charged sulfonated CDPI3 minor groove binder; {CDPI4-(SO3)2} = disulfonated CDPI4 minor groove binder; {CDPI3(C)} = code of the source, not defined here; {CDPI3(N)} = code of the source, not defined here

In the case of “CDPI3 (C): Oligonucleotide conjugate 5′-CCAAAATTAC-X^11-3′, X^11 being the minor groove binder CDPI3 (C) of FIG. 1 (3' {CDPI3(C)}, sugars by position and backbone not given here)”, the “ΔΔG° between match and mismatch” value was 4.87 kcal/mol in series [1] (A/C mismatch position 5), 6.22 kcal/mol in series [1] (A/C mismatch position 6), 6.24 kcal/mol in series [1] (A/C mismatch position 7) and 5.52 kcal/mol in series [1] (A/C mismatch position 8).
Take “CDPI3 (N): Oligonucleotide conjugate 5′-CCAAAATTAC-X^11-3′, X^11 being the minor groove binder CDPI3 (N) of FIG. 1 (3' {CDPI3(N)}, sugars by position and backbone not given here)”: the “ΔΔG° between match and mismatch” value in series [1] (A/C mismatch position 5) is 5.28 kcal/mol; in series [1] (A/C mismatch position 6) it was 6.32 kcal/mol; in series [1] (A/C mismatch position 7) it was 5.55 kcal/mol; in series [1] (A/C mismatch position 8) it was 5.51 kcal/mol.
For “CDPI3—SO3^−: Oligonucleotide conjugate 5′-CCAAAATTAC-X^11-3′, X^11 being the negatively charged minor groove binder CDPI3-SO3^− of FIG. 1 (3' {CDPI3-SO3}, sugars by position and backbone not given here)”, the “ΔΔG° between match and mismatch” value in series [1] (A/C mismatch position 5) is 4.26 kcal/mol; in series [1] (A/C mismatch position 6), 5.16 kcal/mol; in series [1] (A/C mismatch position 7), 5.55 kcal/mol; in series [1] (A/C mismatch position 8), 4.32 kcal/mol. Besides, the “mismatch discrimination performance versus the other conjugates in the Table” value in series [1] (in words) is “comparable to the other conjugates”.
Regarding “CDPI4-(SO3^−)2: 3′-conjugated oligonucleotide GGTTTTAATG-X″, X″ being the attached minor groove binder CDPI4-(SO3^−)2 (3' {CDPI4-(SO3)2}, sugars by position and backbone not given here)”, the “mismatch discrimination (ΔΔG° plotted in FIG. 2)” value in series [2] is listed as “comparable mismatch discrimination”.
